Patent US20090036380A1, “Composition And Method For Brain Tumor Therapy” (Yeda Research and Development Co., Ltd., priority 2006, published 2009)
Entries after “also recorded” stand apart in the source; their conditions may differ.

Key:
PC12 cells = assay: Viability / death of PC12 cells after transfection with Karet constructs (Live/dead kit, FACS, cell counting, Hoechst); assay type: cell-based, rat; details: for cell viability / death versus control vector: PC12, 18 hours after transfection, dead/live kit and FACS
Procedure: FIG. 5a is a bar-graph of FACS data depicting 50 percent death of PC12 cells overexpressing Karet. Shown is a FACS analysis of PC12 viability 15 hours after transfection with Ha-Karet or control vector using Live/dead kit (Molecular probes), T-test=0.003.
FIG. 5b is a series of fluorescence photomicrographs depicting death of PC12 cells caused by Karet overexpression. Shown is a live/dead kit analysis of PC12 cells overexpressing Ha-Karet (left panels) versus control vector-transfected cells (right panels). Live cell are stained in green, dead cells are stained in red. Upper panels each show red fluorescence only (left picture) and green fluorescence only (right picture) pairs, and lower panels each show combined red and green fluorescence (left picture) and light microscopy images (right picture) pairs.
FIG. 5d is a pair of Hoechst stain histology photomicrographs depicting condensation of chromatin indicating apoptosis in PC12 cells expressing Karet, but not in control cells transfected with vector only.
FIG. 5e is a histogram depicting that Karet expression induces cell death of TrkA expressing cells, which is increased by NGF treatment and is decreased by necdin. PC12 or PC12 necdin stable cell line were electroporated with Karet or GFP control and incubated with or without 50 ng/ml NGF for 12 hours. Cells were counted and result presented as percent of control.
PC12 cells were transfected with Ha Karet, PTB, non PTB and their combinations. Cells were analyzed by FACS 18 hours after transfection using the dead/live kit. N=3; * p<0.05; **p<0.001;
The lower panel is a histogram depicting that Karet-mediated cell death correlates well with expression levels of the Karet protein. PC12 Tet-on cells were electroporated with Ha-Karet cloned under inducible promoter and incubated for 24 hours with different concentrations of doxycycline. Cells transfected with Karet but not treated with doxycycline served as control. Cells were counted and the results were determined as percent of control. The upper panel is a control Western blot depicting increased Karet expression with increased concentrations of doxycycline. Cells transfected with Karet and treated with doxycycline were lysed in NP-40 buffer and subjected to SDS-PAGE analysis. Similar amount of protein was loaded and blotted for Karet expression with Ha antibody. Proteins levels were checked with anti-tubulin antibody.
FIG. 18a—PC12 were transfected with Ha Karet, Karet F217V, PTB F217V or a control vector (pcDNA3) and 18 hours after transfection the effect of Karet or Karet mutants on cell death was determined using the dead/live kit and FACS analysis. Results are presented in percentages as compared to cells transfected with the control vector. N=3 **P<0.001. […] FIG. 18b—Cells were lysed 24 hours after transfection, fractionated on SDS-PAGE and immunoblot for anti Ha (Covance).
FIG. 19 is a histogram depicting FACS analysis of Karet-induced death. PC12 cells were co-transfected with Karet and the PTB, non-PTB or the F217V mutant at different ratios (1:1, 1:2, 1:3) and 18 hours after transfection the cells were analyzed by FACS using the dead/live kit.
Viability of cells was evaluated using the Live/dead viability/cytotoxicity kit (Cat. No. L-3224), Molecular Probes, Inc., Eugene, Oreg., USA, according to manufacturer's instructions.

TrkC = target: T1, TrkC (Homo sapiens, UniProt Q16288); assay: Co-immunoprecipitation of Ha Karet with TrkC in Hek cells; assay type: binding; details: co-transfected Hek cells
T1 construct: expressed in transfected cells; host or cells: Hek cells
Procedure: FIGS. 24a-d depict co IP of Ha Karet with TrkA, TrkB, TrkC, p75 from co-transfected Hek cells. Cells were co-transfected with Ha Karet or control vector and TrkA, TrkB, TrkC or p75. Cells were lysed with NP40, the HA-beads (beads conjugated to anti-HA antibody) were blocked with Hek lysate, and elution was done for 30 minutes at 37° C. Proteins from anti-HA-IP (FIGS. 24a and b) or from cell lysates without IP (FIGS. 24c and d) were subjected to Western blot analysis and the membranes were probed with anti pan trk (FIGS. 24a and c) or anti-p75 (FIGS. 24b and d) antibodies. Note the specific co-IP of Karet with TrkA (FIG. 24a, lane 1), Karet with TrkB (FIG. 24a, lane 3), Karet with TrkC (FIG. 24a, lane 5) and the lack of IP between karet and p75 (FIG. 24b, lane 7).

TrkA = target: T2, TrkA; assay: Tyr phosphorylation of TrkA in PC12 6.24 cells; assay type: cell-based, human; details: PC12-6.24 cells expressing Karet, anti-phospho-Tyr blot
T2 construct: expressed in transfected cells; host or cells: PC12 6.24 cells (rat PC12 stably overexpressing human TrkA; Hempstead et al., 1992)
T2 sequence (P04629 33-796): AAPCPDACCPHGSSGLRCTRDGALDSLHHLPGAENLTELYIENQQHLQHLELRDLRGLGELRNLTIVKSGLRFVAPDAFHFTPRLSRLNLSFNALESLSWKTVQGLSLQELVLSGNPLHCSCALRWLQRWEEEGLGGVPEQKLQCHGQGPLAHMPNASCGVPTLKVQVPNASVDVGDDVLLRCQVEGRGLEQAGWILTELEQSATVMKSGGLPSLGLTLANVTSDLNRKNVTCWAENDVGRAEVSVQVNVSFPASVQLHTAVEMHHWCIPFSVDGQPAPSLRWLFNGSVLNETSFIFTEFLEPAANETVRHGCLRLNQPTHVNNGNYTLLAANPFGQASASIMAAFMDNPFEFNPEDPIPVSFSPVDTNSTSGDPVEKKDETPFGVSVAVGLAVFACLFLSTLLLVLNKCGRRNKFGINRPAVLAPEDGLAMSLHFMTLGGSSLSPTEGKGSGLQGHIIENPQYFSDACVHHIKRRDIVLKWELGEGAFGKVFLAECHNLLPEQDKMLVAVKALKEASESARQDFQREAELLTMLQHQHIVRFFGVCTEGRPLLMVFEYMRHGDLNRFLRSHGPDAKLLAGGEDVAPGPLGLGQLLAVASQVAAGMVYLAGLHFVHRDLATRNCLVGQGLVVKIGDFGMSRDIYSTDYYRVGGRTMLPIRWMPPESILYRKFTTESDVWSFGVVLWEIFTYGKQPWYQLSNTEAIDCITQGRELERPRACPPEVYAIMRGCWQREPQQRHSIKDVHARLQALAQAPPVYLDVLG

Substance	cell viability / death versus control vector (PC12 cells)	effect on Karet-induced death in competition assay (PC12 cells; PC12 co-transfected with Karet at ratios 1:1, 1:2, 1:3, FACS 18 hours after transfection)	cell death versus Karet expression level (PC12 cells; PC12 Tet-on cells, 24 hours, different concentrations of doxycycline)	Hoechst staining (PC12 cells; PC12 cells expressing Karet versus control-transfected cells)	co-immunoprecipitation with TrkC (TrkC)	phosphorylation of TrkA (TrkA)
Karet F217V: full-length mouse Karet with phenyl alanine at position 217 point mutated to valine	do not cause death; also recorded: does not induce cell death	reduced Karet-induced death				
Karet: full-length mouse Karet protein (SEQ ID NO:1), PTB domain protein, expressed from pcDNA3 with HA tag	significant reduction in the viability		well correlated with expression levels of the Karet protein	condensed chromatin indicating apoptotic death	co-immunoprecipitated	significantly enhanced the phosphorylation of the receptor
